Tests used:
Test in all cases: KinomeScan profiling
Format in all cases: binding
IKK-beta = target: T1, IKK-beta (Homo sapiens, UniProt O14920); settings: read-out: % control
T1 construct: purchased KinomeScan®
T1 sequence (O14920 1-756): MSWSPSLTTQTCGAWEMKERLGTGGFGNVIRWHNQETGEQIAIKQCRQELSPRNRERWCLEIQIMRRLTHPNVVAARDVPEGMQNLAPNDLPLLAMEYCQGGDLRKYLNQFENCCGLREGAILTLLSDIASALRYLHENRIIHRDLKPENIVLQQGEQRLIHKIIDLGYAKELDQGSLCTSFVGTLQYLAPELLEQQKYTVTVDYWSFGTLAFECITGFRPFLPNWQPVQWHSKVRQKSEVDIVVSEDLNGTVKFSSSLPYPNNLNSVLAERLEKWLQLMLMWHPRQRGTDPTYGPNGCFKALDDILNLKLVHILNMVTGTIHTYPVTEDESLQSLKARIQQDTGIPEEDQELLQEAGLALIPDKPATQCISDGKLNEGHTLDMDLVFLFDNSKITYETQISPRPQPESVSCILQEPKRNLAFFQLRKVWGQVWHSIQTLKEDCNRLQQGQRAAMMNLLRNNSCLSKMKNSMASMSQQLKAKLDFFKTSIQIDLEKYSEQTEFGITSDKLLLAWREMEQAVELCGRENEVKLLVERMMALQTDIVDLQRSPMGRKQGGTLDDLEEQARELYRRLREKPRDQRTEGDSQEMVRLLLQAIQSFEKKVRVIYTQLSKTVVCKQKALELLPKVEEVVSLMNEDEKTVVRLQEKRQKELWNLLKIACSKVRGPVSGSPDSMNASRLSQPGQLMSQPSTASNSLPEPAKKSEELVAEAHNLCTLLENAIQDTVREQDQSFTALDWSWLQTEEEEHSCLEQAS
Procedure, shortened: (§1)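 Luminescence (RLU) was converted to percent of control, with DMSO set as 100% and a reference compound as 0%. Test compounds were run at 1 μM against 468 kinases. Kinases showing below 35% of control were scored as bound.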

[1] = target: T2, JAK1(JH2domain-pseudokinase) (Homo sapiens, UniProt P23458); settings: read-out: % control
T2 construct: JAK1(JH2domain-pseudokinase); purchased KinomeScan®
Procedure, shortened: as §1

DRAK1 = target: T3, DRAK1 (Homo sapiens, UniProt Q9UEE5); settings: DRAK1, 1 μM; read-out: % control
T3 sequence (Q9UEE5 1-414): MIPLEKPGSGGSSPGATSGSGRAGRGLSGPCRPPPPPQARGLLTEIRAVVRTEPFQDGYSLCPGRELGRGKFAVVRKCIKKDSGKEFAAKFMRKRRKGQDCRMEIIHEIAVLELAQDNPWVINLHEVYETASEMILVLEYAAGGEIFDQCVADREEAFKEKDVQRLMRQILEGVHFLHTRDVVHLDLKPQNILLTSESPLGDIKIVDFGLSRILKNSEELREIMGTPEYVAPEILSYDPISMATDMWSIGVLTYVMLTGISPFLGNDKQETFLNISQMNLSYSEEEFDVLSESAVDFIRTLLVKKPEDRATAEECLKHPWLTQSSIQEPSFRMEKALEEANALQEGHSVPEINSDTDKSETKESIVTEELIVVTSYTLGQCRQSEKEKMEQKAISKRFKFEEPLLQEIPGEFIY
Procedure, shortened: as §1

FRK = FRK (Homo sapiens, UniProt P42685); settings: read-out: % control
Procedure, shortened: as §1

[2] = target: T4, JAK3(JH1domain-catalytic) (Homo sapiens, UniProt P52333); settings: read-out: % control
T4 construct: JAK3(JH1domain-catalytic); purchased KinomeScan®
Procedure, shortened: as §1

PIK3CA(H1047L) = target: T5, PIK3CA(H1047L) (Homo sapiens, UniProt P42336, H1047L); settings: read-out: % control
T5 construct: purchased KinomeScan® (panel service)
Procedure, shortened: as §1

FLT1 = FLT1 (Homo sapiens, UniProt P17948); settings: FLT1, 1 μM; read-out: % control
Procedure, shortened: as §1

CDK9 = CDK9 (Homo sapiens, UniProt P50750); settings: CDK9, 1 μM; read-out: % control
Procedure, shortened: as §1

RIOK1 = target: T6, RIOK1 (Homo sapiens, UniProt Q9BRS2); settings: RIOK1, 1 μM; read-out: % control
T6 sequence (Q9BRS2 1-568): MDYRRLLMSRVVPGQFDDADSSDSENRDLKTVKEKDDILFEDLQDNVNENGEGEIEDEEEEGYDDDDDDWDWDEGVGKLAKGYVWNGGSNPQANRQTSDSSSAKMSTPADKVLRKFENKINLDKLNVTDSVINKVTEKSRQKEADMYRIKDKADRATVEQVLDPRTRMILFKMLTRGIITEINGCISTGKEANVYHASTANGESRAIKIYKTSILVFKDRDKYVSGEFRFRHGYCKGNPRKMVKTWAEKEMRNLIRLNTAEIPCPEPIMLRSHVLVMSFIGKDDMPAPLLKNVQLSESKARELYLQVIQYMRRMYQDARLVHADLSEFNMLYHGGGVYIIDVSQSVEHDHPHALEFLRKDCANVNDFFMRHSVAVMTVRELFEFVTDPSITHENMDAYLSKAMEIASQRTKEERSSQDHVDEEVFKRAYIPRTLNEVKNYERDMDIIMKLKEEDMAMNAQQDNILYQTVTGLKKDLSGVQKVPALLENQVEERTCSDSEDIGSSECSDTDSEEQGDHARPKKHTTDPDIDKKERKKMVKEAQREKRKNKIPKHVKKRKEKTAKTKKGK
Procedure, shortened: as §1

T4 sequence (P52333 822-1111 limits assumed): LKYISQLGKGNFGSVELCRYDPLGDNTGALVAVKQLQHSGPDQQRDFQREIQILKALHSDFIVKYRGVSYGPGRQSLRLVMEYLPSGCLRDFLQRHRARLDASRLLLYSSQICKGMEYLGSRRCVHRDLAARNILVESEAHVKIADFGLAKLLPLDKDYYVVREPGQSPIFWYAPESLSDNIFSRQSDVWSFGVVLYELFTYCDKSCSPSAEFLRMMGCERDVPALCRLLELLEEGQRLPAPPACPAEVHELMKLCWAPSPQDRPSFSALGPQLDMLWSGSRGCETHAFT
CDK9, sequence (P50750 whole entry): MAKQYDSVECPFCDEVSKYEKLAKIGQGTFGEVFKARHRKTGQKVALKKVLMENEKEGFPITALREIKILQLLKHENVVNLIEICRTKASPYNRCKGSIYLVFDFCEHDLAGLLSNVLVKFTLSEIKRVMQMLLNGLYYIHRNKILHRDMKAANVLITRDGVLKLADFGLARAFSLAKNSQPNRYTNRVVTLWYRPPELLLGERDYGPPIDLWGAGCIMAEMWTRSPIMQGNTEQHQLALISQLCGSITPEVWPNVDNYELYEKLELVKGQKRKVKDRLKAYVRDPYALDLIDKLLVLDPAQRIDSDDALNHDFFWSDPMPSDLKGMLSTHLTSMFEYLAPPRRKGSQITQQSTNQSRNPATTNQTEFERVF
T2 sequence (P23458 583-855 limits assumed): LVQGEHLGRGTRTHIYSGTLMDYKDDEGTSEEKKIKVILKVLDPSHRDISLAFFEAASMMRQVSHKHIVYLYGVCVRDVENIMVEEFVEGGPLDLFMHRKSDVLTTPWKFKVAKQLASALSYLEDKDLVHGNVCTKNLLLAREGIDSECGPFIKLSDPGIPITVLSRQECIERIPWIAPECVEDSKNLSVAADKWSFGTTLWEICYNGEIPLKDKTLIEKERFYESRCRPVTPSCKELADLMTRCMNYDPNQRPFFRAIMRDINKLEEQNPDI
FRK, sequence (P42685 whole entry): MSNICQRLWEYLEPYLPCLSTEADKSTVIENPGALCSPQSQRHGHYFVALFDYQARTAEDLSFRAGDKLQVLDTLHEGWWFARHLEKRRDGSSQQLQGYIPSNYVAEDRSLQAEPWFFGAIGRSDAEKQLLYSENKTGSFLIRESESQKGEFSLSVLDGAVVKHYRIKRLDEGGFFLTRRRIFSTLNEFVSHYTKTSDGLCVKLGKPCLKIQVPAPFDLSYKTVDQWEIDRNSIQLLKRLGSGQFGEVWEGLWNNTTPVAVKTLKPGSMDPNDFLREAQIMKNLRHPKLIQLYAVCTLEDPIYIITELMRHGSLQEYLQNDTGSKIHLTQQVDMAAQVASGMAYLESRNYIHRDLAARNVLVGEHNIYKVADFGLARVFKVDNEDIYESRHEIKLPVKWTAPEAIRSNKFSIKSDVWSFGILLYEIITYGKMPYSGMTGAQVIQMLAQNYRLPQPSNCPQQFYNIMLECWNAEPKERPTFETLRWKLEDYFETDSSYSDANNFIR
FLT1, sequence (P17948 27-1338): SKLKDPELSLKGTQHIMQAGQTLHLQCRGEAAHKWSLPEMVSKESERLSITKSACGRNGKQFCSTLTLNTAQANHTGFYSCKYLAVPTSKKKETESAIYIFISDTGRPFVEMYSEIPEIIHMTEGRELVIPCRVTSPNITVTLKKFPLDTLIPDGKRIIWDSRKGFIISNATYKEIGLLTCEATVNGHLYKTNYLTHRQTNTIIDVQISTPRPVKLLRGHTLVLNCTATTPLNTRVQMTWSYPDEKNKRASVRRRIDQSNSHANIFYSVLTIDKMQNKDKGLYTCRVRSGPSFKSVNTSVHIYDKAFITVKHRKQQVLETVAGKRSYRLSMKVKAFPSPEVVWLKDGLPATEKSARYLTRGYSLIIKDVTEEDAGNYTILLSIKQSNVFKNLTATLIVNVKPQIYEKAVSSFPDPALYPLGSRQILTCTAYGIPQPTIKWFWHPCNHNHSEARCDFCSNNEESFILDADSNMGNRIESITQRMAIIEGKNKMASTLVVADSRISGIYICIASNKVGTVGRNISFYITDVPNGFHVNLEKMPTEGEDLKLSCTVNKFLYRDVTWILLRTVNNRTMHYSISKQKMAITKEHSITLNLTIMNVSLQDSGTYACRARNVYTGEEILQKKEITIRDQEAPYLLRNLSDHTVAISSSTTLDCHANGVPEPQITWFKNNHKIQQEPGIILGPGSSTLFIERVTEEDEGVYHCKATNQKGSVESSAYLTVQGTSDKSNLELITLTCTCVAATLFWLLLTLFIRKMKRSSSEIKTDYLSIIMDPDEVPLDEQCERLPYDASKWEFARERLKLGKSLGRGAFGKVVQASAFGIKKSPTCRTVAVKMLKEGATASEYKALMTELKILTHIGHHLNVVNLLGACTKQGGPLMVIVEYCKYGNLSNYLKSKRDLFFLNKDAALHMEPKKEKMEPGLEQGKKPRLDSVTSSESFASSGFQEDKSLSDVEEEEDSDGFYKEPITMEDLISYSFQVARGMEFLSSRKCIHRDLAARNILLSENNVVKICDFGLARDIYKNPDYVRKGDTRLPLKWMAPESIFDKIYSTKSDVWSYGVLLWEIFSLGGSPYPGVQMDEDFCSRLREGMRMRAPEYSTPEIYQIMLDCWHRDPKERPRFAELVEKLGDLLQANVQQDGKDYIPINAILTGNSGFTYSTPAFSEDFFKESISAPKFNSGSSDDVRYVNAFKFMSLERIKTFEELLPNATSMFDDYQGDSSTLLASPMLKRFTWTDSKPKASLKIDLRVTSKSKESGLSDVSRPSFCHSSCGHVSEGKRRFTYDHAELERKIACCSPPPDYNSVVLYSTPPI
T5 sequence (P42336 whole entry H1047L): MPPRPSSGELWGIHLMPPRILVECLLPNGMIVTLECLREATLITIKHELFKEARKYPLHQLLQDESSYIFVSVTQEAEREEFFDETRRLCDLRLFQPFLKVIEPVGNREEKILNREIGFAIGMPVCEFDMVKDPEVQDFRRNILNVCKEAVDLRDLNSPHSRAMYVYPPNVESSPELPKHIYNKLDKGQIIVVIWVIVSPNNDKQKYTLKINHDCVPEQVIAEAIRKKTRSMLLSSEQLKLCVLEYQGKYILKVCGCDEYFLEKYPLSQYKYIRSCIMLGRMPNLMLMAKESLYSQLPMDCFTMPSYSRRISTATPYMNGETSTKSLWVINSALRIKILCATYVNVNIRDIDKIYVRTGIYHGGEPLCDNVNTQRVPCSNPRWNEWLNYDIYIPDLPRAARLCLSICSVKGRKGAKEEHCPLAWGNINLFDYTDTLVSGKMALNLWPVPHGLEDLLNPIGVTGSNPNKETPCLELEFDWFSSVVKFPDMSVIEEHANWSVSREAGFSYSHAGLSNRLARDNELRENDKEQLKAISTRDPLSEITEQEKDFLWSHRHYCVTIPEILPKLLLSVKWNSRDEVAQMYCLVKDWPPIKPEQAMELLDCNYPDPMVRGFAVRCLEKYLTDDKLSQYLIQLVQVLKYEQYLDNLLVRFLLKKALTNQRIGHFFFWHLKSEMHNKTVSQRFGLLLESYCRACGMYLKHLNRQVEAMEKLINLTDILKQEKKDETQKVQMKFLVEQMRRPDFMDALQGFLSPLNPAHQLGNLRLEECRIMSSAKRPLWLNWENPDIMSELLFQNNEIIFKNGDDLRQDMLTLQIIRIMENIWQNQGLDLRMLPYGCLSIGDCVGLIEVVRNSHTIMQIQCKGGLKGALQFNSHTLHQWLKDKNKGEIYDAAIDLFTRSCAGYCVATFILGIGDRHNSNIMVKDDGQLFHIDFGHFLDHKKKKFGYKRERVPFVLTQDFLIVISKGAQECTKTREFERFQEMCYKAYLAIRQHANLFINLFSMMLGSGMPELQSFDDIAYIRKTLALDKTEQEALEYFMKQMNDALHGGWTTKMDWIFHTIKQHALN

Row | Compound | remaining binding at 1 µM (IKK-beta) | remaining binding at 1 µM [1] | remaining binding at 1 µM (DRAK1) | remaining binding at 1 µM (FRK) | remaining binding at 1 µM [2] | remaining binding at 1 µM (PIK3CA(H1047L)) | remaining binding at 1 µM (FLT1) | remaining binding at 1 µM (CDK9) | remaining binding at 1 µM (RIOK1)
1 | CNc1c(-c2cnn([C@H]3CCN(C(C)=O)C[C@@H]3F)c2)cnc2[nH]cc(Cl)c12 [Compound 77, 1-((3S,4S)-4-(4-(3-chloro-4-(methylamino)-1H-pyrrolo[2,3-b]pyridin-5-yl)-1H-pyrazol-1-yl)-3-fluoropiperidin-1-yl)ethan-1-one] | 28% | 57% | 81% | 100% | 8.2% | 97% | 21% | 83% | 0%
2 | O=C(c1ccc(-c2cnc3[nH]cc(Cl)c3c2NC2CCCC2)cc1)N1CCC(N2CCOCC2)CC1 [Compound 101, (4-(3-chloro-4-(cyclopentylamino)-1H-pyrrolo[2,3-b]pyridin-5-yl)phenyl)(4-morpholinopiperidin-1-yl)methanone] | 93% | 47% | 100% | 100% | 62% | 100% | 51% | 96% | 11%
3 | CNc1c(-c2ccc(C(=O)N3CCC(N4CCOCC4)CC3)cc2)cnc2[nH]cc(Cl)c12 [Compound 96, (4-(3-chloro-4-(methylamino)-1H-pyrrolo[2,3-b]pyridin-5-yl)phenyl)(4-morpholinopiperidin-1-yl)methanone] | 32% | 94% | 56% | 84% | 7.8% | 92% | 33% | 87% | 0.15%

— patent US12275731B2, “Azaindole inhibitors of wild-type and mutant forms of LRRK2” (DANA-FARBER CANCER INSTITUTE, INC., priority 2018, dated 2025)
